Columns and labels:
[1] = molecular target: C-C chemokine receptor type 5 (Homo sapiens, UniProt P51681); assay: Antagonist activity at CCR5 (unknown origin) expressed in HEK293 cells co-expressing Galpha16 assessed as inhibition of RANTES-induced calcium flux preincubated for 10 mins followed by RANTES addition by fluo-4AM-based fluorescence assay; type: functional, cell-based
[2] = Cytotoxicity against human TZM-bl cells after 48 hrs by MTT assay; type: cell-based
[3] = Cmax in Sprague-Dawley rat at 20 mg/kg, po by LC-MS/MS analysis; type: ADME, organism-based; parameters: dose 20 mg/kg, route oral; conditions: in vivo
[4] = Tmax in Sprague-Dawley rat at 20 mg/kg, po by LC-MS/MS analysis; type: ADME, organism-based; conditions: in vivo
[5] = Half life in Sprague-Dawley rat at 20 mg/kg, po by LC-MS/MS analysis; type: ADME, organism-based; conditions: in vivo
[6] = AUC (0 to infinity) in Sprague-Dawley rat at 20 mg/kg, po by LC-MS/MS analysis; type: ADME, organism-based; parameters: dose 20 mg/kg, route oral, time infinity; conditions: in vivo
[7] = MRT in Sprague-Dawley rat at 20 mg/kg, po by LC-MS/MS analysis; type: ADME, organism-based; conditions: in vivo
[8] = Oral bioavailability in Sprague-Dawley rat at 20 mg/kg by LC-MS/MS analysis; type: ADME, organism-based; conditions: in vivo
[9] = Cmax in Sprague-Dawley rat at 10 mg/kg, iv by LC-MS/MS analysis; type: ADME, organism-based; parameters: dose 10 mg/kg, route intravenous; conditions: in vivo
[10] = Tmax in Sprague-Dawley rat at 10 mg/kg, iv by LC-MS/MS analysis; type: ADME, organism-based; conditions: in vivo
[11] = Half life in Sprague-Dawley rat at 10 mg/kg, iv by LC-MS/MS analysis; type: ADME, organism-based; conditions: in vivo
[12] = AUC (0 to infinity) in Sprague-Dawley rat at 10 mg/kg, iv by LC-MS/MS analysis; type: ADME, organism-based; parameters: dose 10 mg/kg, time infinity, route intravenous; conditions: in vivo
[13] = MRT in Sprague-Dawley rat at 10 mg/kg, iv by LC-MS/MS analysis; type: ADME, organism-based; conditions: in vivo
[14] = Clearance in Sprague-Dawley rat at 10 mg/kg, iv by LC-MS/MS analysis; type: ADME, organism-based; conditions: in vivo
[15] = molecular target: Voltage-gated inwardly rectifying potassium channel KCNH2 (Homo sapiens, UniProt Q12809); assay: Inhibition of human ERG expressed in CHO cells at holding potential of -80 mV after 60 secs by patch clamp assay; type: cell-based
Sequence of Voltage-gated inwardly rectifying potassium channel KCNH2 (Q12809 whole entry): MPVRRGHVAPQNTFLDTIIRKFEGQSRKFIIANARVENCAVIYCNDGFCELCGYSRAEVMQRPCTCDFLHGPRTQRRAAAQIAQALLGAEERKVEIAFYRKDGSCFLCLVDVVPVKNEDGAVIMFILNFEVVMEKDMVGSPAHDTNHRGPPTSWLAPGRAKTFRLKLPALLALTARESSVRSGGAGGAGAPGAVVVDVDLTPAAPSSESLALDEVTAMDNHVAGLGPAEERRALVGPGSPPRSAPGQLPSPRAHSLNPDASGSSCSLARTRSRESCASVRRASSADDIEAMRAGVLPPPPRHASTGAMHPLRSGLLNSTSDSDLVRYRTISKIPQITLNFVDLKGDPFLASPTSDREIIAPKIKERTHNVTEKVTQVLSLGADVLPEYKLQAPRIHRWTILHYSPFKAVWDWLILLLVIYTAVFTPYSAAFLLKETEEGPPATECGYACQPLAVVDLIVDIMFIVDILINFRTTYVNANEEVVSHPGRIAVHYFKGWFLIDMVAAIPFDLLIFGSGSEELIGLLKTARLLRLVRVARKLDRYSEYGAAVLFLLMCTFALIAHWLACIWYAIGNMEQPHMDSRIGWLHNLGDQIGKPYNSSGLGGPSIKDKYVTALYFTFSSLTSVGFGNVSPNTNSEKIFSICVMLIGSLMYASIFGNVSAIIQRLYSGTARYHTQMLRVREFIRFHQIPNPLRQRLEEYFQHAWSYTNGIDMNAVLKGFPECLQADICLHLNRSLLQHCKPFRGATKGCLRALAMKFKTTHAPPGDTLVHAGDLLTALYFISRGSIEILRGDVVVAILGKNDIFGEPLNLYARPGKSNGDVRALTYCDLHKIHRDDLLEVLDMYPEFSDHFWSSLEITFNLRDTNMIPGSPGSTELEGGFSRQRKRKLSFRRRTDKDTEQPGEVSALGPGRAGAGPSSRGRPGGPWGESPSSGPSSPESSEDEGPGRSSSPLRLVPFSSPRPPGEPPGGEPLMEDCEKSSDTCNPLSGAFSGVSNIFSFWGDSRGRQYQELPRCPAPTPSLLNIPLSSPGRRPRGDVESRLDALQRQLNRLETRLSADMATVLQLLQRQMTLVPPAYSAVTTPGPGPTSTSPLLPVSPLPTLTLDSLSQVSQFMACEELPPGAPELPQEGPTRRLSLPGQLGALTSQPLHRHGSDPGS

[16] = molecular target: T1, Cytochrome P450 1A2 (Homo sapiens, UniProt P05177); assay: Inhibition of CYP1A2 (unknown origin); type: ADME
T1 sequence (P05177 whole entry): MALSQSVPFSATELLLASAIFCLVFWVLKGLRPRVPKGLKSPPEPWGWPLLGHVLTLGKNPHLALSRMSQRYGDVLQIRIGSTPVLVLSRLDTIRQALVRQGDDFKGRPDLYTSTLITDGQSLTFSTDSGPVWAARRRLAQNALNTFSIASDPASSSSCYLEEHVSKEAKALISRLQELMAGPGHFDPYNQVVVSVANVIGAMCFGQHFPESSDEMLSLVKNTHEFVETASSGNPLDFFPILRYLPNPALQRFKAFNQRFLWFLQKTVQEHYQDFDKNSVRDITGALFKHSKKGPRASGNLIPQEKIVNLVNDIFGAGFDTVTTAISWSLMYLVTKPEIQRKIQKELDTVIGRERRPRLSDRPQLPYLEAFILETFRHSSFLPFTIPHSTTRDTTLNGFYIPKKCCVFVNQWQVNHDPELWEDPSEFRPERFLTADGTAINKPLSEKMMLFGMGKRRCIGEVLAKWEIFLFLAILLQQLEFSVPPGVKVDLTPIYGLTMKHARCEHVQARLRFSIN

[17] = molecular target: Cytochrome P450 2C9 (Homo sapiens, UniProt P11712); assay: Inhibition of CYP2C9 (unknown origin); type: ADME
Sequence of Cytochrome P450 2C9 (P11712 whole entry): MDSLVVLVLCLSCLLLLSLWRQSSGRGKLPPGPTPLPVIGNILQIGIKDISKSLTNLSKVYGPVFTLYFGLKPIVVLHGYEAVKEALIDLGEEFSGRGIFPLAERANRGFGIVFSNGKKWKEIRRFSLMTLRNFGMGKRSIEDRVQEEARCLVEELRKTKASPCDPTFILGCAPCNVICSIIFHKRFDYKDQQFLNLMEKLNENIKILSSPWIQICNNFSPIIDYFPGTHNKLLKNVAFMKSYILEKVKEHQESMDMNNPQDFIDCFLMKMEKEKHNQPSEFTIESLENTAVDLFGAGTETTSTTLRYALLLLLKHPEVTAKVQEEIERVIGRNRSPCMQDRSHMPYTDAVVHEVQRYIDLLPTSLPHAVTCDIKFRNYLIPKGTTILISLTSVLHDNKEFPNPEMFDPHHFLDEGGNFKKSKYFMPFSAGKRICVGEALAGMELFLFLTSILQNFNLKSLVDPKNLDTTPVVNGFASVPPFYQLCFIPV

[18] = molecular target: Cytochrome P450 2C19 (Homo sapiens, UniProt P33261); assay: Inhibition of CYP2C19 (unknown origin); type: ADME
Sequence of Cytochrome P450 2C19 (P33261 whole entry): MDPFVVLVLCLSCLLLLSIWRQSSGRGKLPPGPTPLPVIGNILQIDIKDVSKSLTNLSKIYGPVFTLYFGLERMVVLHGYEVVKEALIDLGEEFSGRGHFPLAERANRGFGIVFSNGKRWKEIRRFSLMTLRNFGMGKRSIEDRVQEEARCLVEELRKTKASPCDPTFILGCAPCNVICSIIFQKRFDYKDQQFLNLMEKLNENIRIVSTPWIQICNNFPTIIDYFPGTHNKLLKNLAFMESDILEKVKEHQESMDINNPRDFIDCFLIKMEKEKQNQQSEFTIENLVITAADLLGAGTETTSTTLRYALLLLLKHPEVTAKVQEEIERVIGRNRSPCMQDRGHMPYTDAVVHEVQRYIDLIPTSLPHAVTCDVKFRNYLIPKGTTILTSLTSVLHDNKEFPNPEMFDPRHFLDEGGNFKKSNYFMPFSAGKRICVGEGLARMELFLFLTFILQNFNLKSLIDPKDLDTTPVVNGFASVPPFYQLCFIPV

[19] = molecular target: Cytochrome P450 2D6 (Homo sapiens, UniProt P10635); assay: Inhibition of CYP2D6 (unknown origin); type: ADME
Sequence of Cytochrome P450 2D6 (P10635 whole entry): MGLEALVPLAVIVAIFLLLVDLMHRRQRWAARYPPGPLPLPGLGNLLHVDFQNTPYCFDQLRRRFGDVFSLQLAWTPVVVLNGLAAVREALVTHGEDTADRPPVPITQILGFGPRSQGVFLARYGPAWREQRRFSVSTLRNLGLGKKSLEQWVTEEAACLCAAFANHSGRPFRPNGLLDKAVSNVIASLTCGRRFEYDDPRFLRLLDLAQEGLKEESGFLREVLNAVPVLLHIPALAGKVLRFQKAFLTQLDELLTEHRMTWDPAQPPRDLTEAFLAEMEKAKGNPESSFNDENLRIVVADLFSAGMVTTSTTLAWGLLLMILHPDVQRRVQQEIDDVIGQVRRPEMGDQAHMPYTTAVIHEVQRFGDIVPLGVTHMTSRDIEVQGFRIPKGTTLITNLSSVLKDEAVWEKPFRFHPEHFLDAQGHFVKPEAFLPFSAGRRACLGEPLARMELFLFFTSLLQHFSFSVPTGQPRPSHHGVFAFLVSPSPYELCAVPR

[20] = molecular target: T2, Cytochrome P450 3A4 (Homo sapiens, UniProt P08684); assay: Inhibition of CYP3A4 (unknown origin) using midazolam as substrate; type: ADME
T2 sequence (P08684 whole entry): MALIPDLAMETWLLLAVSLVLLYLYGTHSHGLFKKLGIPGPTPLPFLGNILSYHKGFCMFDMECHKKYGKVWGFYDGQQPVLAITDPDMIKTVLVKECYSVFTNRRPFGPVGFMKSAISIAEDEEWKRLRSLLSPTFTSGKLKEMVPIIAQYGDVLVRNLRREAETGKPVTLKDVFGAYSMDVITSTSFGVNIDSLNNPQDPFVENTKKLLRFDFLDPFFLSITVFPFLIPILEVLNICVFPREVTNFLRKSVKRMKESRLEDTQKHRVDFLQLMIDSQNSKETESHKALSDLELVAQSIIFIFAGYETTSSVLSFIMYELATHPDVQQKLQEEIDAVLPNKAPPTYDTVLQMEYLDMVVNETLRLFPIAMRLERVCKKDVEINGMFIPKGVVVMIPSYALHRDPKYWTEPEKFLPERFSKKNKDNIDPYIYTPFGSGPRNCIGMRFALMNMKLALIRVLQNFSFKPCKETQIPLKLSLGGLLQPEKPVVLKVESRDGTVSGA

[21] = molecular target: T2, Cytochrome P450 3A4; assay: Inhibition of CYP3A4 (unknown origin) using testosterone as substrate; type: ADME
[22] = in vitro; conditions: human, TZM-bl cells
Description: Therapeutic index, ratio of CC50 for human TZM-bl cells to EC50 for CCR5-dependent HIV1 SF162 infected in human TZM-bl cells

[23] = in vitro; conditions: human, PBMC
Description: Therapeutic index, ratio of CC50 for human PBMC to IC50 for CCR5-dependent HIV1 SF162 infected in human PBMC cells

[24] = in vitro; conditions: human, HOS cells
Description: Therapeutic index, ratio of CC50 for human HOS cells to IC50 for CCR5-dependent HIV1 SF162 infected in human HOS cells

[25] = in vitro; conditions: human, PBMC; remark: listed apart in the source
Description: Therapeutic index, ratio of CC50 for human PBMC to IC50 for CCR5-dependent HIV1 KM018 infected in human PBMC

[26] = in vitro; conditions: human, PBMC; remark: listed apart in the source
Description: Therapeutic index, ratio of CC50 for human PBMC to IC50 for CCR5-dependent HIV1 Ba-L infected in human PBMC

[27] = in vitro; conditions: human, HOS cells; remark: listed apart in the source
Description: Therapeutic index, ratio of CC50 for human HOS cells to IC50 for CCR5-dependent HIV1 Ba-L infected in human HOS cells

[28] = in vitro; conditions: human, PM1 cells
Description: Therapeutic index, ratio of CC50 for human PM1 cells to IC50 for CCR5-dependent HIV1 Ba-L infected in human PM1 cells

[29] = tested on: Human immunodeficiency virus 1; assay: microbe, parasite or virus in culture; conditions: Human immunodeficiency virus 1, SF162, TZM-bl, 48 h
Description: Antiviral activity against CCR5-dependent HIV1 SF162 infected in human TZM-bl cells assessed as reduction in virus infection measured after 48 hrs post infection by luciferase reporter gene assay

[30] = tested on: Human immunodeficiency virus 1; assay: microbe, parasite or virus in culture; conditions: Human immunodeficiency virus 1, SF162, PBMC, 168 h
Description: Antiviral activity against CCR5-dependent HIV1 SF162 infected in human PBMC assessed as reduction in virus infection measured after 7 days by luciferase reporter gene assay

[31] = tested on: Human immunodeficiency virus 1; assay: microbe, parasite or virus in culture; conditions: Human immunodeficiency virus 1, SF162, HOS, 120 h
Description: Antiviral activity against CCR5-dependent HIV1 SF162 infected in human HOS cells assessed as reduction in virus infection measured after 5 days by luciferase reporter gene assay

[32] = tested on: Human immunodeficiency virus 1; assay: microbe, parasite or virus in culture; conditions: Human immunodeficiency virus 1, KM018, PBMC, 168 h
Description: Antiviral activity against CCR5-dependent HIV1 KM018 infected in human PBMC assessed as reduction in virus infection measured after 7 days by luciferase reporter gene assay

[33] = tested on: Human immunodeficiency virus 1; assay: microbe, parasite or virus in culture; conditions: Human immunodeficiency virus 1, Ba-L, PBMC, 168 h
Description: Antiviral activity against CCR5-dependent HIV1 Ba-L infected in human PBMC assessed as reduction in virus infection measured 7 days by luciferase reporter gene assay

[34] = tested on: Human immunodeficiency virus 1; assay: microbe, parasite or virus in culture; conditions: Human immunodeficiency virus 1, Ba-L, HOS, 120 h
Description: Antiviral activity against CCR5-dependent HIV1 Ba-L infected in human HOS cells assessed as reduction in virus infection measured after 5 days by luciferase reporter gene assay

[35] = tested on: Human immunodeficiency virus 1; assay: microbe, parasite or virus in culture; conditions: Human immunodeficiency virus 1, Ba-L, PM1, 120 h
Description: Antiviral activity against CCR5-dependent HIV1 Ba-L infected in human PM1 cells assessed as reduction in virus infection measured after 5 days by luciferase reporter gene assay

Sequence of C-C chemokine receptor type 5 (P51681 whole entry): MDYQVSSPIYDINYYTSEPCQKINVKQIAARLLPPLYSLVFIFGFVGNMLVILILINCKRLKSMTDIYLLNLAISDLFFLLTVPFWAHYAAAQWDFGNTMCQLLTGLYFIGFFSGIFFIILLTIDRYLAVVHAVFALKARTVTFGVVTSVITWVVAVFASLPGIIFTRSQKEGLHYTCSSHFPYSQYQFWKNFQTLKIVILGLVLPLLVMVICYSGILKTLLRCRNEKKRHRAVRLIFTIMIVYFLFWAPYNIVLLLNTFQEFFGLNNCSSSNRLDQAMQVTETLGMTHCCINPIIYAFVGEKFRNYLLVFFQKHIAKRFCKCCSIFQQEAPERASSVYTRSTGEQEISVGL

| SMILES | IC50 [1] | CC50 at 48 h [2] | Cmax [3] | Tmax [4] | half-life [5] | AUC(0-inf) [6] | MRT [7] | bioavailability [8] | Cmax [9] | Tmax [10] | half-life [11] | AUC(0-inf) [12] | MRT [13] | clearance [14] | IC50 [15] | IC50 [16] | IC50 [17] | IC50 [18] | IC50 [19] | IC50 [20] | further results |
| --- | --- | --- | --- | --- | --- | --- | --- | --- | --- | --- | --- | --- | --- | --- | --- | --- | --- | --- | --- | --- | --- |
| Cc1ccc([C@H](CCN2[C@@H]3CC[C@H]2C[C@H](n2c(C)nnc2C(C)C)C3)NC(=O)C2CCC(F)(F)CC2)s1 | 2.8 nM | > 200 µM | 580 ng/mL | 2 h | 1970 min | 1870 ng·h/mL | 4.8 h | 40.1% | 1690 ng/mL | 15 min | 96 min | 2330 ng·h/mL | 2.3 h | 71.7 mL/min/kg | 3380 nM | > 25 µM | > 25 µM | > 25 µM | > 25 µM | 10.9 µM | IC50 [21]: 23.4 µM; selectivity ratio [22]: > 17000; selectivity ratio [23]: > 29000; selectivity ratio [24]: > 11000; selectivity ratio [25]: > 1600; selectivity ratio [26]: > 833; selectivity ratio [27]: > 18000; selectivity ratio [28]: > 13000; IC50 [29]: 11.5 nM; IC50 [30]: 6.7 nM; IC50 [31]: 18.8 nM; IC50 [32]: 126 nM; IC50 [33]: 240 nM; IC50 [34]: 11.4 nM; IC50 [35]: 14.9 nM |
| Cc1nnc(C(C)C)n1[C@@H]1C[C@H]2CC[C@@H](C1)N2CC[C@H](NC(=O)C1CCCCC1)c1cccs1 | 2.3 nM | > 200 µM | 631 ng/mL | 0.25 h | 69.6 min | 1510 ng·h/mL | 2.1 h | 14.8% | 4320 ng/mL | 15 min | 18.6 min | 5110 ng·h/mL | 0.8 h | 32.7 mL/min/kg | 2060 nM | > 25 µM | > 25 µM | > 25 µM | 15.1 µM | 12.3 µM | IC50 [21]: 21.7 µM; selectivity ratio [22]: > 18000; selectivity ratio [23]: 509; selectivity ratio [24]: 7800; selectivity ratio [25]: 529; selectivity ratio [26]: 575; selectivity ratio [27]: 27000; selectivity ratio [28]: 44000; IC50 [29]: 11.1 nM; IC50 [30]: 524 nM; IC50 [31]: 43.7 nM; IC50 [32]: 504 nM; IC50 [33]: 464 nM; IC50 [34]: 12.5 nM; IC50 [35]: 8.2 nM |

Source: ChEMBL document CHEMBL4229569, “Structure-Based Design of 1-Heteroaryl-1,3-propanediamine Derivatives as a Novel Series of CC-Chemokine Receptor 5 Antagonists” (J Med Chem, 2018)
